Experimental data: ChEMBL document CHEMBL1201862, “PubChem BioAssay data set” (2004)
The source made the active and inactive calls.

Assays:
[1] = biological target: T1, SUMO-activating enzyme (Homo sapiens, UniProt Q9UBT2); test: blockers of UBC9-mediated SUMO conjugation – biochemical, AlphaScreen, SUMOylation inhibitor project, confirmation (AID 2018); type: functional
[2] = biological target: T1, SUMO-activating enzyme; test: blockers of SAE1/SAE2–UBC9 SUMO transfer – biochemical, HTRF, uHTS, primary screen (AID 2006); type: protein-complex assay
[3] = biological target: T2, Endoribonuclease toxin MazF (Escherichia coli K-12, UniProt P0AE70); test: activation of MazEF endoribonuclease cleavage – biochemical, fluorescence, single-stranded RNA substrate, uHTS hits, dose response (AID 588481); type: functional
T2 sequence (P0AE70 whole entry): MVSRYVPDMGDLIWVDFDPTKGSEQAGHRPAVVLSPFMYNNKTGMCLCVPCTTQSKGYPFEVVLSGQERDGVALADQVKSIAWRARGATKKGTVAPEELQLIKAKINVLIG

[4] = biological target: T2, Endoribonuclease toxin MazF; test: substrate-only fluorescence increase artefacts – biochemical, single-stranded RNase substrate, counter-screen for MazEF activator project, dose response (AID 588502); type: functional
[5] = system: Saccharomyces cerevisiae; test: S. cerevisiae Caspase-1/ASC signal blockers IC50, NALP1 inhibitor project selectivity test (AID 488863); type: functional, organism-based
[6] = biological target: NACHT, LRR and PYD domains-containing protein 1 (Homo sapiens, UniProt Q9C000); test: NALP1 inhibitors in yeast, dose response, luminescent (AID 488860); type: functional
[7] = biological target: X-box-binding protein 1 (Homo sapiens, UniProt P17861); type: functional, Cricetulus griseus;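 also: confirmatory dose-response counter-screen serving a CHOP assay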
Sequence of X-box-binding protein 1 (P17861 whole entry): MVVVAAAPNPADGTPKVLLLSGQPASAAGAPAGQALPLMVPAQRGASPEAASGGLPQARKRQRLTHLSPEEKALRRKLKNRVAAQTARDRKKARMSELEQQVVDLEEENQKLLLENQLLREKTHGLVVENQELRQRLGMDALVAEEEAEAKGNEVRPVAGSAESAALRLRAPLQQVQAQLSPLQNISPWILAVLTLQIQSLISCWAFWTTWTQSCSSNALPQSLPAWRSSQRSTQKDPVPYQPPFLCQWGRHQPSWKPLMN

[8] = biological target: Cytochrome P450 3A4 (Homo sapiens, UniProt P08684); conditions: Potency;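 also: confirmatory qHTS run detecting inhibitors and substrates of CYP3A4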
Sequence of Cytochrome P450 3A4 (P08684 whole entry): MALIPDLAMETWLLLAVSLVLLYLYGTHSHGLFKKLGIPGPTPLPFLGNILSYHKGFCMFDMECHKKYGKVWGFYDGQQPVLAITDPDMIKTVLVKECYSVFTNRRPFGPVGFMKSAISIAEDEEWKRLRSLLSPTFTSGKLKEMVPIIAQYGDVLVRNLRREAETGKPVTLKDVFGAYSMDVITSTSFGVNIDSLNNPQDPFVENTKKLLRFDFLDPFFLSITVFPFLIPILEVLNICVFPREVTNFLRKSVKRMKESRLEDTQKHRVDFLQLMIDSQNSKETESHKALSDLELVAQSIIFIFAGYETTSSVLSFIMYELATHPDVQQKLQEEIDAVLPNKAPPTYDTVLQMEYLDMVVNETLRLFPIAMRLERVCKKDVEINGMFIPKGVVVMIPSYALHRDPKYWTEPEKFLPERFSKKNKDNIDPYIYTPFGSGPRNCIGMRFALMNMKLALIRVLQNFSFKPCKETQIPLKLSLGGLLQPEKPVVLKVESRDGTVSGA

[9] = biological target: Cytochrome P450 2C9 (Homo sapiens, UniProt P11712); conditions: Potency
Sequence of Cytochrome P450 2C9 (P11712 whole entry): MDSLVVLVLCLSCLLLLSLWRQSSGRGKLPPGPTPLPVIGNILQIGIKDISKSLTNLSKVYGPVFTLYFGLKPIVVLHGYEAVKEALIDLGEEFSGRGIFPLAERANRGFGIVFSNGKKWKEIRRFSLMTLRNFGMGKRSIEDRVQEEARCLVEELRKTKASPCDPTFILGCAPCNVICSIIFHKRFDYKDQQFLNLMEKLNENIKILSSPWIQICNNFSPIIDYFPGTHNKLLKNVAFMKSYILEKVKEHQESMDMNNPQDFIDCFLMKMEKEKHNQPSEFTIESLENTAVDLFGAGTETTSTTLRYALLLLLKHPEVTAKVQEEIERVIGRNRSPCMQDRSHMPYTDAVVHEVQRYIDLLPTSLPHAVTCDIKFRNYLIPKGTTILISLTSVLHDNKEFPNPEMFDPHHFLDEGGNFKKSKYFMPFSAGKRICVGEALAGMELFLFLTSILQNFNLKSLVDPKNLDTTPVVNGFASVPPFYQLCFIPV

[10] = system: Salmon testes DNA; test: acridine orange-DNA binding displacement – biochemical, fluorescence polarization, cherry-picked samples, set 2, artefact control for KSHV LANA DNA-binding inhibitor project, dose response (AID 504727); design: species or system Salmonidae
[11] = biological target: ORF 73 (Human herpesvirus 8, UniProt O40947); test: KSHV LANA DNA-binding disruption – biochemical, fluorescence polarization, cherry-picked samples, dose response (AID 504725); design: species or system Human gammaherpesvirus 8;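 also: fluorescence polarization of a labeled DNA duplex reporting LANA DNA binding; potency is for inhibitors that block LANA binding to the DNA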
Sequence of ORF 73 (O40947 whole entry): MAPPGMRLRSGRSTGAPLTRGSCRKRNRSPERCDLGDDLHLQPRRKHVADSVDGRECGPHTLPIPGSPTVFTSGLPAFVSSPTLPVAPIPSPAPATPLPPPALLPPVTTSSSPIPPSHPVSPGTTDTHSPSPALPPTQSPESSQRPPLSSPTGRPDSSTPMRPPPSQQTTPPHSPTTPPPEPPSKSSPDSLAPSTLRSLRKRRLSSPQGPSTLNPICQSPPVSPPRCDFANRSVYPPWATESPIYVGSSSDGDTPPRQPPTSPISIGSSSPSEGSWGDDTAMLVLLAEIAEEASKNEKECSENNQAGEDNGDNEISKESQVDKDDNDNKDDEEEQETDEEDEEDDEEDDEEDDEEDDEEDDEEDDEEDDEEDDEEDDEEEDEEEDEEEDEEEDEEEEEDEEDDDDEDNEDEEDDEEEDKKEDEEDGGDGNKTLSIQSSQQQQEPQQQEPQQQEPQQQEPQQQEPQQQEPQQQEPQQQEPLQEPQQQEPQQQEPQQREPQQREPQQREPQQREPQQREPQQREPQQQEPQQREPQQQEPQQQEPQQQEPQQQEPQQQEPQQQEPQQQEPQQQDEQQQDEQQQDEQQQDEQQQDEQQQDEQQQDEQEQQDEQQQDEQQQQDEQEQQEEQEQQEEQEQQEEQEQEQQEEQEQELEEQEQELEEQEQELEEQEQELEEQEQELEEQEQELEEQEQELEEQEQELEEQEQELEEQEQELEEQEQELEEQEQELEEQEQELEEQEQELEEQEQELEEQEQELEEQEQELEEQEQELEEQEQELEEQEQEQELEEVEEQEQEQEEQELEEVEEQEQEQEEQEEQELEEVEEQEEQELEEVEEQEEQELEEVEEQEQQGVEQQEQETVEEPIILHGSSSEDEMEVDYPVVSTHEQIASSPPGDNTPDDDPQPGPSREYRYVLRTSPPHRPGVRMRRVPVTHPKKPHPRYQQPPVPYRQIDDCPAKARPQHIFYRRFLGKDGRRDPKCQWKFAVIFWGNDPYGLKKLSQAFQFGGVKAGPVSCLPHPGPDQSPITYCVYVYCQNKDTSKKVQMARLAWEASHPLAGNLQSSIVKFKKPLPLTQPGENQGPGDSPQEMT

[12] = biological target: Beta-galactosidase (Escherichia coli, UniProt Q8VNN2); type: functional
Sequence of Beta-galactosidase (Q8VNN2 whole entry): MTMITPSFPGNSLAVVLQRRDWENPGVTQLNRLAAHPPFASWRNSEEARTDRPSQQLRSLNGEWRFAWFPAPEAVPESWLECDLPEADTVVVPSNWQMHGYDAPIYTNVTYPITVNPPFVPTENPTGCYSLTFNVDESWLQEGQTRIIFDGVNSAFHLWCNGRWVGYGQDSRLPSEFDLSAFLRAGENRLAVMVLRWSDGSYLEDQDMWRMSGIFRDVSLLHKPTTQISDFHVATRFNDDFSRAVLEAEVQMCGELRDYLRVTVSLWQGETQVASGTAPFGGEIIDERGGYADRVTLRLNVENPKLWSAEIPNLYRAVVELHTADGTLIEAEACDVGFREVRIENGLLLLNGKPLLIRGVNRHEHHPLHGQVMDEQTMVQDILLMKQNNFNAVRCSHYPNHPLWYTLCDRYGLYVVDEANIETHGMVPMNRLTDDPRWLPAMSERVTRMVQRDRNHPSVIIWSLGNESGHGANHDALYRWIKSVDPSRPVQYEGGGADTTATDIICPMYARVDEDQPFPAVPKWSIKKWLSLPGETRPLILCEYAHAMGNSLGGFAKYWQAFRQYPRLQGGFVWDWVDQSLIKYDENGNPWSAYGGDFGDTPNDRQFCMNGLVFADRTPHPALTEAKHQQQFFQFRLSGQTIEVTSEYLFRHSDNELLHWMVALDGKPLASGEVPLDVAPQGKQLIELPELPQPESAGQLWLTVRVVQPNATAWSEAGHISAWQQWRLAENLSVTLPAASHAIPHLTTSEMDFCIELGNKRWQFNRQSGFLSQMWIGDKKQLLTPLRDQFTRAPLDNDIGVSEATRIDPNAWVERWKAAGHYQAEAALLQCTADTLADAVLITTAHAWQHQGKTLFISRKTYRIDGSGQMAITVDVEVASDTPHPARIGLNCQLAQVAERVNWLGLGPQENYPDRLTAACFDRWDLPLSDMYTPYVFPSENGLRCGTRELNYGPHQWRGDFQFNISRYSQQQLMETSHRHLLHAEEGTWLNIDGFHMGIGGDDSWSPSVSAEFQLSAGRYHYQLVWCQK

T1 sequence (Q9UBE0 whole entry): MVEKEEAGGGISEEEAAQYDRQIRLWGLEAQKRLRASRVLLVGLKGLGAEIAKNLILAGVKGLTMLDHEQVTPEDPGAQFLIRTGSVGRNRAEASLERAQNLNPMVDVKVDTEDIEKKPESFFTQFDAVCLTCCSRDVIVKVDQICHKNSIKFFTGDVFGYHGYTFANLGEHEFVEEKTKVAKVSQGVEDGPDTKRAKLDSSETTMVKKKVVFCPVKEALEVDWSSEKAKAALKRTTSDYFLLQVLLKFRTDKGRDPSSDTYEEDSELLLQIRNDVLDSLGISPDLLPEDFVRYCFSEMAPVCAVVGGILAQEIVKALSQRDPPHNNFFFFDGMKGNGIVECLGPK
T1 sequence (Q9UBT2 whole entry): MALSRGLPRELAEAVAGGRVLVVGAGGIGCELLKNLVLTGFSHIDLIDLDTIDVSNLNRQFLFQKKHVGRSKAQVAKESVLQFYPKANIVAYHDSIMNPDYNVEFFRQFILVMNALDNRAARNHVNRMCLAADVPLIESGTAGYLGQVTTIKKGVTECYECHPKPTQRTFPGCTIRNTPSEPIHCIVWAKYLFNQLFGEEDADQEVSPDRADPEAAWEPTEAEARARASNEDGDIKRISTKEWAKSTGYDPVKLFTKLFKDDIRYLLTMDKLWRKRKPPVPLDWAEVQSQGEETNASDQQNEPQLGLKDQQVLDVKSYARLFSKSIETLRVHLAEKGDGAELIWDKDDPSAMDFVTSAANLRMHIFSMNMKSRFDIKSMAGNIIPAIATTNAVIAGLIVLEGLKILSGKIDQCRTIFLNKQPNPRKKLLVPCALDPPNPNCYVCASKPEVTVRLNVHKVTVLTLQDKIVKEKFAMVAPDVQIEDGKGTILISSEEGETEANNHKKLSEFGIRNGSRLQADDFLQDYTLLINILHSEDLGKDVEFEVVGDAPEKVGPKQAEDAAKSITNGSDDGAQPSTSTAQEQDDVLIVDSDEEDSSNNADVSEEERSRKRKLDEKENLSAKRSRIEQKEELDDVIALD

O=C1NC(=O)C(=Cc2c[nH]c3ccc(OCc4ccccc4)cc23)C(=O)N1
IC50 [1]: 20.9 µM (active) | IC50 [2]: 11 µM (active) | EC50 [3]: > 99 µM (inactive) | EC50 [4]: > 99 µM (inactive)

CC(=O)c1ccc(NC(=O)Nc2ccc(Cl)cc2)cc1
IC50 [5]: 2.98 µM (active) | IC50 [6]: 35.9 µM (active)

COc1ccccc1C(=O)Oc1ccc(C(C)C)cc1
Absolute IC50 (XBP1) [7]: 10 µM

N[C@@H](Cc1cc(O)c(O)cc1O)C(=O)O
AC50 [8]: 15.8 µM (inconclusive) | AC50 [9]: 39.8 µM (inconclusive)

O=C(NC12CC3CC(CC(C3)C1)C2)N1CCN(c2ncccn2)CC1
AC50 [10]: 210 µM (active) | AC50 [11]: 81.5 µM (active)

O=[N+]([O-])c1ccccc1/C=C/C=N/n1c(S)nnc1-c1cc(-c2ccccc2)[nH]n1
IC50 [1]: 10.3 µM (active) | IC50 [2]: 26.8 µM (active)

CCOC(=O)c1c(C)[nH]c(C(=O)COC(=O)c2[nH]c(C)c(C(C)=O)c2C)c1C
Absolute IC50 (XBP1) [7]: 10 µM

C=C1CC[C@@]2(O)[C@H]3Cc4ccc(O)c5c4[C@@]2(CCN3CC2CC2)[C@H]1O5
EC50 [12]: > 31.5 µM (inactive)
